We go through one molecule from publication PMC4013371 (The Journal of Veterinary Medical Science, 2013).

SMILES strings stand for the structures.

The nature of data set [1]: Adverse effects during multiple CLM treatment. Format: in vivo, healthy beagles (dogs). To be noted: CLM about 10 mg/kg PO twice daily for ten days; three healthy beagles.
For data set [2] the following is noted: CLM 10 mg/kg PO, healthy beagles, not steady state; cited from earlier work.

Regarding `CC[C@H]1OC(=O)[C@H](C)[C@@H](O[C@H]2C[C@@](C)(OC)[C@@H](O)[C@H](C)O2)[C@H](C)[C@@H](O[C@@H]2O[C@H](C)C[C@H](N(C)C)[C@H]2O)[C@](C)(OC)C[C@@H](C)C(=O)[C@H](C)[C@@H](O)[C@]1(C)O` [CLM, Clarithromycin], in data set [1], the “adverse effects associated with CLM, such as gastrointestinal irritation” value is recorded as “no adverse effects”. In data set [2], the serum concentrations result is recorded as “approximately 3 µg/ml”.
